Data published in publication PMC7580722, “Design of new disubstituted imidazo[1,2-b]pyridazine derivatives as selective Haspin inhibitors. Synthesis, binding mode and anticancer biological evaluation” (Journal of Enzyme Inhibition and Medicinal Chemistry, 2020).

Assays:
[1] = tested on: HsCdk5/p25; experiment: CDK5 kinase assay; format: biochemical, human; conditions: SI = IC50 kinase X/IC50 Haspin
Protocol: Values are IC50 expressed in µM and calculated from dose–response curves (each point on the curves was performed in triplicate). Selectivity indexes (SI; in brackets) are calculated as follows: SI = IC50 kinase X/IC50 Haspin. ND: not determined. *IC50 values obtained using the ADP-Glo methodology (see Experimental section, Supplementary Material). […]
The reaction was carried out as described in general procedure A using 4 (0.150 g, 0.58 mmol, 1 equiv.), 2-aminopyrimidine-5-boronic acid (0.122 g, 0.88 mmol, 1.5 equiv.) and Cs2CO3 (0.575 g, 1.75 mmol, 3 equiv.). The crude mixture was purified by flash chromatography on silica gel (EtOAc) to afford 28 (0.115 g, 73 %) as a yellow […]
The reaction was carried out as described in general procedure A using 4 (0.100 g, 0.39 mmol, 1 equiv.), 1-naphthaleneboronic acid (0.083g, 0.47 mmol, 1.2 equiv.) and Cs2CO3 (0.381 g, 1.17 mmol, 3 equiv.). […]
Recombinant protein kinases were expressed and purified from E. coli (HsHaspin kinase domain aa470-798, HsCdk5/p25, RnDYRK1A kinase domain aa1-499, HsPIM1, MmCLK1) or baculovirus/Sf9 cells (HsCdk2/Cyclin A, HsCdk9/Cyclin T). […] The wet filter-bound radioactivity was determined in the presence of 20 µl scintillation fluid (GE healthcare) with a TopCount® Scintillation and Luminescence Counter (PerkinElmer). IC50 values were calculated from dose-response curves […]

[2] = target: T1, HsCDK1 (Homo sapiens, UniProt P06493); experiment: CDK1 kinase assay; format: biochemical
T1 construct: purchased ProQinase
T1 sequence (P06493 whole entry): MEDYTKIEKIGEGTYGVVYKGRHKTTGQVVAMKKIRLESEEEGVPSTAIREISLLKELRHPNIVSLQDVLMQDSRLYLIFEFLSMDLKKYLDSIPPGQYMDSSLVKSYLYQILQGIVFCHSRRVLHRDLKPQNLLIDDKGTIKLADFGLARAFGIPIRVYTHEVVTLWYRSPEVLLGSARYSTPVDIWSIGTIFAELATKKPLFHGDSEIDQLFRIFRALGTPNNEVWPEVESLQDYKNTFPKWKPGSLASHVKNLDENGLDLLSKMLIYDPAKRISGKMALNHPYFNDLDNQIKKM
T1 sequence (P14635 whole entry partner): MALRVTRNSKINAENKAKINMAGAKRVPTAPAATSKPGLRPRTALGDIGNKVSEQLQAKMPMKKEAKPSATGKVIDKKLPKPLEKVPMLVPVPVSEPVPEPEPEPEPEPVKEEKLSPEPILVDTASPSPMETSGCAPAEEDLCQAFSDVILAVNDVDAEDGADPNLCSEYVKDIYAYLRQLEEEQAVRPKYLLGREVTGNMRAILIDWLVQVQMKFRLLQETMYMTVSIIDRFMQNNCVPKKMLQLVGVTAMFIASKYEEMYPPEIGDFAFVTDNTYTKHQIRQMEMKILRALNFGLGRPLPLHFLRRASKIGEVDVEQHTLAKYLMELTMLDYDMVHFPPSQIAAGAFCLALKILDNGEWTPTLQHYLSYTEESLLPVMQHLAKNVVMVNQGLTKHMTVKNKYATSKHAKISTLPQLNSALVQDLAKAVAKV
Protocol: We therefore tested our compounds on two obvious candidates, HsCDK1 and HsPLK1 (Polo-like_kinase 1) both required for mitotic entry[50]
Values are IC50 expressed in µM and calculated from dose–response curves (each point from the curves was performed in duplicate). NR: not relevant. […]
Recombinant protein kinases were expressed and purified from E. coli (HsHaspin kinase domain aa470-798, HsCdk5/p25, RnDYRK1A kinase domain aa1-499, HsPIM1, MmCLK1) or baculovirus/Sf9 cells (HsCdk2/Cyclin A, HsCdk9/Cyclin T). Native SscCK1δ /ε and SscGSK3α/β were purified from pig brain whereas HsPlk1, HsCdk1 and HsAurora B were purchased from ProQinase and SignalChem respectively. Kinase assays were performed in specific buffers and substrates for each kinase tested in the presence of 15 µM [γ-33P] ATP (3,000 Ci/mmol, 10 mCi/ml; PerkinElmer) in a final volume of 30 µl as previously reported 51. After 30 min incubation at 30°C, the reaction mix was spotted onto GE healthcare P81 phosphocellulose paper using a FilterMate Harvester (PerkinElmer), and the filter was extensively washed with a 1% phosphoric acid solution. The wet filter-bound radioactivity was determined in the presence of 20 µl scintillation fluid (GE healthcare) with a TopCount® Scintillation and Luminescence Counter (PerkinElmer). IC50 values were calculated from dose-response curves

[3] = tested on: RPE-1; experiment: Cell viability, monolayer (2D), MTS assay; format: cell-based; conditions: Homo sapiens, 48 h
[4] = tested on: U-2 OS spheroids; experiment: Spheroid (3D) viability, CellTiter-Glo; format: cell-based, human; conditions: 5 µM, Figure 4(B)
[5] = tested on: Haspin activity (H3T3ph) in U-2 OS cells; experiment: In-cell Haspin activity, H3T3ph immunofluorescence; format: cell-based, human; conditions: 24 h
[6] = tested on: U-2 OS cells; experiment: Scratch wound cell migration assay (IncuCyte); format: cell-based, human; conditions: 0.6 µM, 0.5% FBS, normalised against DMSO control (100%)

In the case of `c1cc2[nH]ncc2cc1-c1cnc2ccc(OC[C@@H]3CNCCO3)nn12` [Compound 21], the “selectivity for CDK5 vs Haspin” value [1] is reported as 150 fold, the “SI CDK1/Haspin” value ([2]; SI = IC50 CDK1/IC50 Haspin) is reported as 392 and the IC50 ([2]; Table 4, read-out: IC50 HsCDK1) is reported as 2.35 µM. For the same compound, the EC50 [3] was 4.6 µM, the “U-2 OS spheroid remaining viability” value ([4]; 2 days) was “no effects” and the viability at 5 µM ([4]; Homo sapiens, U2OS, 240 h, 10 days, read-out: U-2 OS spheroid viability) was 69%. The “H3T3ph signal remaining in prometaphase cells (% of ctrl)” value ([5]; 0.5 µM) was 2.4%, the inhibition at 0.05 µM ([5]; Homo sapiens, U2OS, 0.05 µM, read-out: inhibition of cellular Haspin activity) was over 80% and the “normalised wound closure after 24 h” value [6] was “around 100%”.
